Here are results for 15 molecules from ChEMBL document CHEMBL3259645, “Design and synthesis of spirocyclic compounds as HCV replication inhibitors by targeting viral NS4B protein” (Bioorg Med Chem Lett, 2014).

What is called EC50 is the concentration at which the effect is half-maximal. What is called CC50 is the concentration that lowers cell viability or growth by half.

SMILES strings stand for the structures. Where only a bound is given, the exact number is not on record here.

In the first series the test system is Hepatitis C virus. The experiment in a line: Antiviral activity against Hepatitis C virus genotype 1b infected in human HuH7 cells assessed as inhibition of replicon replication after 48 hrs by luciferase reporter gene assay. It counts as functional, cell-based, Hepacivirus hominis. To be noted: Huh-7, 48 h. On the technique in general: A replicon is a self-replicating genome or part of one, used to study replication in cells.
For the molecule `O=C(c1nn2c(C(F)(F)F)cc(C3CC3)cc2c1Cl)N1CCC2(CC1)OCC1(CCC1)CO2`, the EC50 was found to be 7.6 nM.

Consider `O=C(c1nn2c(C(F)(F)F)cc(C3CC3)cc2c1Cl)N1CCC2(CC1)OCC1(CO2)CC(O)C1`, for which the EC50 was 14.2 nM.

As to `O=C(c1nn2c(C(F)(F)F)cc(C3CC3)cc2c1Cl)N1CCC2(CC1)OCC1(COC1)CO2`, the EC50 is 3.2 nM.

In the case of `O=C(c1nn2c(C(F)(F)F)cc(C3CC3)cc2c1Cl)N1CCC2(OCC3(CC3)CO2)[C@@H](O)C1`, the 50% effective concentration (EC50) was 8.2 nM.

Regarding `O=C(c1nn2c(C(F)(F)F)cc(C3CC3)cc2c1Cl)N1CCC2(OCC3(CC3)CO2)C(=O)C1`, the 50% effective concentration (EC50) turned out to be 3.8 nM.

`O=C1NCC2(CCN(C(=O)c3nn4c(C(F)(F)F)cc(C5CC5)cc4c3Cl)CC2)O1`: the 50% effective concentration (EC50) was 55.4 nM.

Regarding `CCN1CC2(CCN(C(=O)c3nn4c(C(F)(F)F)cc(C5CC5)cc4c3Cl)CC2)OC1=O`, the concentration giving a half-maximal response (EC50) was 5.9 nM.

On to `O=C1OC2(CCN(C(=O)c3nn4c(C(F)(F)F)cc(C5CC5)cc4c3Cl)CC2)CN1CCO`, for which the EC50 was 78.5 nM.

`O=C1OC2(CCN(C(=O)c3nn4c(C(F)(F)F)cc(C5CC5)cc4c3Cl)CC2)CN1CC1CC1`: the EC50 came out at 23.4 nM.

As to `O=C1OC2(CCN(C(=O)c3nn4c(C(F)(F)F)cc(C5CC5)cc4c3Cl)CC2)CN1Cc1ccccc1`, the concentration giving a half-maximal response (EC50) came to 457 nM.

For `O=C1CC2(CCN(C(=O)c3nn4c(C(F)(F)F)cc(C5CC5)cc4c3Cl)CC2)CN1`, the half-maximal effective concentration (EC50) amounted to 1580 nM.

As to `CN1CC2(CCN(C(=O)c3nn4c(C(F)(F)F)cc(C5CC5)cc4c3Cl)CC2)CC1=O`, the EC50 amounted to 69.2 nM.

Consider `CN1C[C@@]2(CCN(C(=O)c3nn4c(C(F)(F)F)cc(C5CC5)cc4c3Cl)C[C@H]2O)OC1=O`, for which the concentration for a half-maximal effect (EC50) was found to be 7 nM.

Take `CN1C[C@]2(CCN(C(=O)c3nn4c(C(F)(F)F)cc(C5CC5)cc4c3Cl)C[C@@H]2O)OC1=O`: the EC50 was found to be 3990 nM.

`CN1C[C@]2(CCN(C(=O)c3nn4c(C(F)(F)F)cc(C5CC5)cc4c3Cl)C[C@H]2O)OC1=O`: the EC50 stood at 7.2 nM.

Tested on in another series: not listed separately
Briefly: Cytotoxicity against human HuH7 cells infected with Hepatitis C virus genotype 1b.
Details: not given
It counts as cell-based, Huh-7.
Consider `O=C(c1nn2c(C(F)(F)F)cc(C3CC3)cc2c1Cl)N1CCC2(CC1)OCC1(CCC1)CO2`, for which the CC50 is > 50000 nM.

`O=C(c1nn2c(C(F)(F)F)cc(C3CC3)cc2c1Cl)N1CCC2(CC1)OCC1(CO2)CC(O)C1`: the CC50 is > 50000 nM.

On to `O=C(c1nn2c(C(F)(F)F)cc(C3CC3)cc2c1Cl)N1CCC2(CC1)OCC1(COC1)CO2`, for which the CC50 was > 50000 nM.

As to `O=C(c1nn2c(C(F)(F)F)cc(C3CC3)cc2c1Cl)N1CCC2(OCC3(CC3)CO2)[C@@H](O)C1`, the cytotoxic concentration (CC50) is > 50000 nM.

For the molecule `O=C(c1nn2c(C(F)(F)F)cc(C3CC3)cc2c1Cl)N1CCC2(OCC3(CC3)CO2)C(=O)C1`, the CC50 was > 50000 nM.

`O=C1NCC2(CCN(C(=O)c3nn4c(C(F)(F)F)cc(C5CC5)cc4c3Cl)CC2)O1`: the CC50 is > 50000 nM.

On to `CCN1CC2(CCN(C(=O)c3nn4c(C(F)(F)F)cc(C5CC5)cc4c3Cl)CC2)OC1=O`, for which the half-maximal cytotoxic concentration (CC50) is > 50000 nM.

As for `O=C1OC2(CCN(C(=O)c3nn4c(C(F)(F)F)cc(C5CC5)cc4c3Cl)CC2)CN1CCO`, the CC50 was > 50000 nM.

`O=C1OC2(CCN(C(=O)c3nn4c(C(F)(F)F)cc(C5CC5)cc4c3Cl)CC2)CN1CC1CC1`: the half-maximal cytotoxic concentration (CC50) is > 50000 nM.

For `O=C1OC2(CCN(C(=O)c3nn4c(C(F)(F)F)cc(C5CC5)cc4c3Cl)CC2)CN1Cc1ccccc1`, the 50% cytotoxic concentration (CC50) was > 50000 nM.

As for `O=C1CC2(CCN(C(=O)c3nn4c(C(F)(F)F)cc(C5CC5)cc4c3Cl)CC2)CN1`, the CC50 is > 50000 nM.

`CN1CC2(CCN(C(=O)c3nn4c(C(F)(F)F)cc(C5CC5)cc4c3Cl)CC2)CC1=O`: the CC50 is > 50000 nM.

For the molecule `CN1C[C@@]2(CCN(C(=O)c3nn4c(C(F)(F)F)cc(C5CC5)cc4c3Cl)C[C@H]2O)OC1=O`, the CC50 is > 50000 nM.

As to `CN1C[C@]2(CCN(C(=O)c3nn4c(C(F)(F)F)cc(C5CC5)cc4c3Cl)C[C@@H]2O)OC1=O`, the half-maximal cytotoxic concentration (CC50) was > 50000 nM.

As to `CN1C[C@]2(CCN(C(=O)c3nn4c(C(F)(F)F)cc(C5CC5)cc4c3Cl)C[C@H]2O)OC1=O`, the CC50 is > 50000 nM.

A further series relates to Hepatitis C virus. The experiment in a line: Antiviral activity against Hepatitis C virus genotype 1a infected in human HuH7 cells assessed as inhibition of replicon replication after 48 hrs by luciferase reporter gene assay. It counts as functional, cell-based, Hepacivirus hominis. The note with it: subtype 1a, Huh-7, 48 h.
With `O=C(c1nn2c(C(F)(F)F)cc(C3CC3)cc2c1Cl)N1CCC2(CC1)OCC1(CCC1)CO2`, the 50% effective concentration (EC50) is 5.1 nM.

For `O=C(c1nn2c(C(F)(F)F)cc(C3CC3)cc2c1Cl)N1CCC2(CC1)OCC1(CO2)CC(O)C1`, the 50% effective concentration (EC50) was 2.2 nM.

For the molecule `O=C(c1nn2c(C(F)(F)F)cc(C3CC3)cc2c1Cl)N1CCC2(CC1)OCC1(COC1)CO2`, the EC50 was 14.4 nM.

As to `O=C(c1nn2c(C(F)(F)F)cc(C3CC3)cc2c1Cl)N1CCC2(OCC3(CC3)CO2)[C@@H](O)C1`, the 50% effective concentration (EC50) was found to be 32.5 nM.

Turning to `O=C(c1nn2c(C(F)(F)F)cc(C3CC3)cc2c1Cl)N1CCC2(OCC3(CC3)CO2)C(=O)C1`, the EC50 is 5.1 nM.

For the molecule `O=C1NCC2(CCN(C(=O)c3nn4c(C(F)(F)F)cc(C5CC5)cc4c3Cl)CC2)O1`, the EC50 turned out to be 166 nM.

With `CCN1CC2(CCN(C(=O)c3nn4c(C(F)(F)F)cc(C5CC5)cc4c3Cl)CC2)OC1=O`, the EC50 was 20.6 nM.

Regarding `O=C1OC2(CCN(C(=O)c3nn4c(C(F)(F)F)cc(C5CC5)cc4c3Cl)CC2)CN1CCO`, the EC50 was 23.2 nM.

As for `O=C1OC2(CCN(C(=O)c3nn4c(C(F)(F)F)cc(C5CC5)cc4c3Cl)CC2)CN1CC1CC1`, the EC50 turned out to be 18.1 nM.

In the case of `O=C1OC2(CCN(C(=O)c3nn4c(C(F)(F)F)cc(C5CC5)cc4c3Cl)CC2)CN1Cc1ccccc1`, the EC50 came out at 427 nM.

For `O=C1CC2(CCN(C(=O)c3nn4c(C(F)(F)F)cc(C5CC5)cc4c3Cl)CC2)CN1`, the 50% effective concentration (EC50) turned out to be 441 nM.

With `CN1CC2(CCN(C(=O)c3nn4c(C(F)(F)F)cc(C5CC5)cc4c3Cl)CC2)CC1=O`, the half-maximal effective concentration (EC50) is 184 nM.

For the molecule `CN1C[C@@]2(CCN(C(=O)c3nn4c(C(F)(F)F)cc(C5CC5)cc4c3Cl)C[C@H]2O)OC1=O`, the 50% effective concentration (EC50) was 14.5 nM.

As to `CN1C[C@]2(CCN(C(=O)c3nn4c(C(F)(F)F)cc(C5CC5)cc4c3Cl)C[C@@H]2O)OC1=O`, the EC50 stood at 3560 nM.

Regarding `CN1C[C@]2(CCN(C(=O)c3nn4c(C(F)(F)F)cc(C5CC5)cc4c3Cl)C[C@H]2O)OC1=O`, the EC50 stood at 16.7 nM.
